From patent US11970493B2, “Autotaxin inhibitor compounds” (ILDONG PHARMACEUTICAL CO., LTD., priority 2020, dated 2024)
Counter-ions that a name gives are not always drawn.

Tests used:
[1] = molecular target: hATX/ENPP2 (Homo sapiens, UniProt Q13822); experiment: hATX/ENPP2 biochemical assay using 16:0-LPC as substrate (Amplex Red/choline oxidase/HRP fluorescence); settings: hENPP2 2.5 nM, LPC (16:0) substrate
In short: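 Enzyme preincubated with compounds 15 min at room temperature in 50 mM Tris-HCl pH 8.0, 140 mM NaCl, 5 mM CaCl2, 0.01% Triton X-100. Reaction started with 80 μM LPC (16:0) stock plus Amplex Red/choline oxidase/HRP mix; fluorescence (ex 530/em 590 nm) read kinetically. IC50 from slope between 60 and 70 min.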

[2] = Mouse PK study (IV and PO); format: in vivo; settings: male, C57BL/6, mouse, plasma, male C57BL/6 mice; for AUC(0-inf): IV 2 mg/kg and PO 10 mg/kg study; for bioavailability / Cmax: po, 10 mg/kg; for bioavailability: IV 2 mg/kg and PO 10 mg/kg, read-out: F % (bioavailability); for Cmax: PO group 10 mg/kg
Experimental: This example describes the pharmacokinetic (PK) data obtained for various compounds of the present disclosure, from studies using mice. The following PK parameters were calculated: • Bioavailability (F %) were calculated using the linear/log trapezoidal rule • Peak plasma concentrations (Cmax (ng/mL)) were taken directly from the plasma concentration vs. time profiles for the PO group • Area under the curve e.g., the area under the concentration curve from time 0 to infinity (AUC0-inf(ng*h/mL)). Experimental Procedures
After intravenous (IV) and oral (PO) administration at 2 mg/kg and 10 mg/kg to male C57BL/6 mice, respectively, the blood samples were collected at the designed sampling time points. All blood samples were transferred into pre-chilled commercial polyethylene microcentrifuge tubes containing K2-EDTA as an anticoagulant. Samples were processed for plasma by centrifugation. Plasma samples was transferred into polypropylene tubes pre-chilled on dry ice and then quickly frozen over dry ice and kept at −70±10° C. until LC-MS/MS analysis. Mice plasma samples were analyzed using qualified bioanalytical methods based on protein precipitation followed by LC-MS/MS analysis. Individual plasma concentration data of each compound was subjected to noncompartmental pharmacokinetic analysis using Phoenix WinNonlin™. Nominal doses were used for pharmacokinetic parameters calculation.

SMILES | IC50 [1] | AUC(0-inf) [2] | bioavailability [2] | Cmax [2]
CCc1nc2ccc(-c3cnc(N4CCN(C(=O)C5(O)CC5)CC4)nc3)cn2c1N(C)c1nc(-c2ccc(F)cc2)c(C#N)s1 [Compound 2, 2-((2-ethyl-6-(2-(4-(1-hydroxycyclopropane-1-carbonyl)piperazin-1-yl)pyrimidin-5-yl)imidazo[1,2-a]pyridin-3-yl)(methyl)amino)-4-(4-fluorophenyl)thiazole-5-carbonitrile] | ≤ 20 nM | 35100 ng·h/mL | 61% | 4070 ng/mL
CCc1nc2ccc(-c3cnc(C(=O)N4CCCC4)nc3)cn2c1N(C)c1nc(-c2ccc(F)cc2)c(C#N)s1 [Compound 47, 2-((2-ethyl-6-(2-(pyrrolidine-1-carbonyl)pyrimidin-5-yl)imidazo[1,2-a]pyridin-3-yl)(methyl)amino)-4-(4-fluorophenyl)thiazole-5-carbonitrile] | 20 to 200 nM | 42300 ng·h/mL | 62.3% | 4760 ng/mL
CCc1nc2ccc(-c3cnc(N4CCN(C(=O)C5(C#N)CC5)CC4)nc3)cn2c1N(C)c1nc(-c2ccc(F)cc2)c(C#N)s1 [Compound 1, 2-((6-(2-(4-(1-cyanocyclopropane-1-carbonyl)piperazin-1-yl)pyrimidin-5-yl)-2-ethylimidazo[1,2-a]pyridin-3-yl)(methyl)amino)-4-(4-fluorophenyl) thiazole-5-carbonitrile] | ≤ 20 nM | 27200 ng·h/mL | 56.5% | 3030 ng/mL
CCc1nc2ccc(-c3cnc(N4CCN(C(=O)C5CNC5)CC4)nc3)cn2c1N(C)c1nc(-c2ccc(F)cc2)c(C#N)s1 [Compound 9, 2-((6-(2-(4-(azetidine-3-carbonyl)piperazin-1-yl)pyrimidin-5-yl)-2-ethylimidazo[1,2-a]pyridin-3-yl)(methyl)amino)-4-(4-fluorophenyl)thiazole-5-carbonitrile] | ≤ 20 nM |  |  | 
CCc1nc2ccc(-c3cnc(N4CCN(C(=O)NC5CNC5)CC4)nc3)cn2c1N(C)c1nc(-c2ccc(F)cc2)c(C#N)s1 [66 (hydrochloride salt), N-(azetidin-3-yl)-4-(5-(3-((5-cyano-4-(4-fluorophenyl)thiazol-2-yl)(methyl)amino)-2-ethylimidazo[1,2-a]pyridin-6-yl)pyrimidin-2-yl)piperazine-1-carboxamide hydrochloride] | ≤ 20 nM |  |  | 
CCc1nc2ccc(-c3cnc(NCC4CN(C(=O)N5CC(O)C5)C4)nc3)cn2c1N(C)c1nc(-c2ccc(F)cc2)c(C#N)s1 [Compound 39, 2-((2-ethyl-6-(2-(((1-(3-hydroxyazetidine-1-carbonyl)azetidin-3-yl)methyl)amino)pyrimidin-5-yl)imidazo[1,2-a]pyridin-3-yl)(methyl)amino)-4-(4-fluorophenyl)thiazole-5-carbonitrile] | 20 to 200 nM |  |  | 
CCc1nc2ccc(-c3ccc(N4CCN(C(=O)NC5CNC5)CC4)nc3)cn2c1N(C)c1nc(-c2ccc(F)cc2)c(C#N)s1 [Compound 96 hydrochloride, N-(azetidin-3-yl)-4-(5-(3-((5-cyano-4-(4-fluorophenyl)thiazol-2-yl)(methyl)amino)-2-ethylimidazo[1,2-a]pyridin-6-yl)pyridin-2-yl) piperazine-1-carboxamide hydrochloride] | 20 to 200 nM |  |  | 
CCc1nc2ccc(-c3cnc(C4CCN(C(=O)N5CCCC5)CC4)nc3)cn2c1N(C)c1nc(-c2ccc(F)cc2)c(C#N)s1 [Compound 102, 2-((2-ethyl-6-(2-(1-(pyrrolidine-1-carbonyl)piperidin-4-yl)pyrimidin-5-yl)imidazo[1,2-a]pyridin-3-yl)(methyl)amino)-4-(4-fluorophenyl)thiazole-5-carbonitrile] | 20 to 200 nM |  |  | 
CCc1nc2ccc(-c3cnc(C(=O)N4CCC(O)CC4)nc3)cn2c1N(C)c1nc(-c2ccc(F)cc2)c(C#N)s1 [Compound 15, 2-((2-ethyl-6-(2-(4-hydroxypiperidine-1-carbonyl)pyrimidin-5-yl)imidazo[1,2-a]pyridin-3-yl)(methyl)amino)-4-(4-fluorophenyl)thiazole-5-carbonitrile] | 20 to 200 nM |  |  | 
CCc1nc2ccc(-c3cnc(C4CCN(C(=O)N5CCC5)CC4)nc3)cn2c1N(C)c1nc(-c2ccc(F)cc2)c(C#N)s1 [Compound 101, 2-((6-(2-(1-(azetidine-1-carbonyl)piperidin-4-yl)pyrimidin-5-yl)-2-ethylimidazo[1,2-a]pyridin-3-yl)(methyl)amino)-4-(4-fluorophenyl)thiazole-5-carbonitrile] | 20 to 200 nM |  |  | 
CCc1nc2ccc(-c3cnc(N4CCN(C(=O)[C@H]5C[C@@H](O)CN5)CC4)nc3)cn2c1N(C)c1nc(-c2ccc(F)cc2)c(C#N)s1 [Compound 6, 2-((2-ethyl-6-(2-(4-((2R,4R)-4-hydroxypyrrolidine-2-carbonyl)piperazin-1-yl)pyrimidin-5-yl)imidazo[1,2-a]pyridin-3-yl) (methyl)amino)-4-(4-fluorophenyl)thiazole-5-carbonitrile] | ≤ 20 nM |  |  | 
CCc1nc2ccc(-c3ccc(N4CCN(CC(=O)N5CC[C@H](O)C5)CC4)nc3)cn2c1N(C)c1nc(-c2ccc(F)cc2)c(C#N)s1 [Compound 91, (S)-2-((2-ethyl-6-(6-(4-(2-(3-hydroxypyrrolidin-1-yl)-2-oxoethyl)piperazin-1-yl)pyridin-3-yl)imidazo[1,2-a]pyridin-3-yl)(methyl)amino)-4-(4-fluorophenyl) thiazole-5-carbonitrile] | ≤ 20 nM |  |  | 
CCc1nc2ccc(-c3cnc(N4CCC(NC(=O)C5CNC5)CC4)nc3)cn2c1N(C)c1nc(-c2ccc(F)cc2)c(C#N)s1 [Compound 83 hydrochloride, N-(1-(5-(3-((5-cyano-4-(4-fluorophenyl)thiazol-2-yl)(methyl)amino)-2-ethylimidazo[1,2-a]pyridin-6-yl)pyrimidin-2-yl)piperidin-4-yl)azetidine-3-carboxamide hydrochloride] | ≤ 20 nM |  |  | 

More lines, now with the values ahead:

IC50 [1] | AUC(0-inf) [2] | bioavailability [2] | Cmax [2] | SMILES
20 to 200 nM |  |  |  | CCc1nc2ccc(-c3cnc(C(=O)NC4CNC4)nc3)cn2c1N(C)c1nc(-c2ccc(F)cc2)c(C#N)s1 [Compound 50, N-(azetidin-3-yl)-5-(3-((5-cyano-4-(4-fluorophenyl)thiazol-2-yl) (methyl)amino)-2-ethylimidazo[1,2-a]pyridin-6-yl)pyrimidine-2-carboxamide]
20 to 200 nM |  |  |  | CCc1nc2ccc(-c3cnc(CC(=O)NC4CCNCC4)nc3)cn2c1N(C)c1nc(-c2ccc(F)cc2)c(C#N)s1 [Compound 65, 2-(5-(3-((5-cyano-4-(4-fluorophenyl)thiazol-2-yl)(methyl)amino)-2-ethylimidazo [1,2-a]pyridin-6-yl)pyrimidin-2-yl)-N-(piperidin-4-yl)acetamide]
20 to 200 nM |  |  |  | CCc1nc2ccc(-c3cnc(CC(=O)N4CCC(O)CC4)nc3)cn2c1N(C)c1nc(-c2ccc(F)cc2)c(C#N)s1 [Compound 57, 2-((2-ethyl-6-(2-(2-(4-hydroxypiperidin-1-yl)-2-oxoethyl)pyrimidin-5-yl)imidazo[1,2-a]pyridin-3-yl)(methyl)amino)-4-(4-fluorophenyl) thiazole-5-carbonitrile]
20 to 200 nM |  |  |  | CCc1nc2ccc(-c3cnc(CC(=O)NC)nc3)cn2c1N(C)c1nc(-c2ccc(F)cc2)c(C#N)s1 [Compound 61, 2-(5-(3-((5-cyano-4-(4-fluorophenyl)thiazol-2-yl)(methyl)amino)-2-ethylimidazo[1,2-a]pyridin-6-yl)pyrimidin-2-yl)-N-methyl acetamide]
20 to 200 nM |  |  |  | CCc1nc2ccc(-c3cnc(CC(=O)N4CC(NC5CNC5)C4)nc3)cn2c1N(C)c1nc(-c2ccc(F)cc2)c(C#N)s1 [Compound 53, 2-((6-(2-(2-(3-(azetidin-3-ylamino)azetidin-1-yl)-2-oxoethyl)pyrimidin-5-yl)-2-ethylimidazo[1,2-a]pyridin-3-yl)(methyl)amino)-4-(4-fluorophenyl)thiazole-5-carbonitrile]
20 to 200 nM |  |  |  | CCc1nc2ccc(-c3cnc(NCC4CN(C(=O)C5(O)CC5)C4)nc3)cn2c1N(C)c1nc(-c2ccc(F)cc2)c(C#N)s1 [Compound 41, 2-((2-ethyl-6-(2-(((1-(1-hydroxycyclopropane-1-carbonyl)azetidin-3-yl)methyl)amino)pyrimidin-5-yl)imidazo[1,2-a]pyridin-3-yl)(methyl)amino)-4-(4-fluorophenyl)thiazole-5-carbonitrile]
≤ 20 nM |  |  |  | CCc1nc2ccc(-c3cnc(N4CCC(C(=O)NC5CNC5)CC4)nc3)cn2c1N(C)c1nc(-c2ccc(F)cc2)c(C#N)s1 [Compound 72 hydrochloride, N-(azetidin-3-yl)-1-(5-(3-((5-cyano-4-(4-fluorophenyl)thiazol-2-yl)(methyl)amino)-2-ethylimidazo[1,2-a]pyridin-6-yl)pyrimidin-2-yl)piperidine-4-carboxamide hydrochloride]
> 200 nM |  |  |  | CCc1nc2ccc(-c3cnc(NCC4CNC4)nc3)cn2c1N(C)c1nc(-c2ccc(F)cc2)c(C#N)s1 [38 (formate salt), 2-((6-(2-((azetidin-3-ylmethyl)amino)pyrimidin-5-yl)-2-ethylimidazo[1,2-a]pyridin-3-yl)(methyl)amino)-4-(4-fluorophenyl)thiazole-5-carbonitrile formate]
